Read-outs that look alike come from different tables or passages of the source.
How the values were obtained:
[1] = system: larvae of the mustard beetle (Phaedon cochleariae); assay: Phaedon cochleariae spray test (PHAECO); format: in vivo; conditions: for efficacy / pest or weed control at 100 g/ha: 100 g/ha, spray, after 7 days; for pest or weed control at 100 g/ha: read-out: efficacy
Method: Phaedon cochleariae—Spray Test (PHAECO)
(§1) To produce a suitable preparation of active compound, 1 part by weight of active compound is mixed with the stated amounts of solvent and emulsifier, and the concentrate is diluted with emulsifier-containing water to the desired concentration.
Discs of Chinese cabbage leaves (Brassica pekinensis) are sprayed with an active compound formulation of the desired concentration and, after drying, populated with larvae of the mustard beetle (Phaedon cochleariae).
After 7 days, the efficacy in % is determined. 100% means that all the beetle larvae have been killed; 0% means that no beetle larvae have been killed.
After the stated period of time, the effect in % is determined 100% means that all the beetle larvae have been killed; 0% means that no beetle larvae have been killed.

Boophilus microplus = Boophilus microplus test (BOOPMI injection); format: in vivo; conditions: 20 μg/animal, after 7 days
Method: Boophilus microplus Test (BOOPMI Injection) [table] To produce a suitable active compound formulation, 10 mg of active compound are mixed with 0.5 ml of solvent and the concentrate is diluted with solvent to the desired concentration. The active compound solution is injected into the abdomen (Boophilus microplus), and the animals are transferred into dishes and stored in a climate-controlled room. After 7 days, the efficacy in % is determined. The activity is assessed by laying of fertile eggs. 100% means that none of the ticks has laid any fertile eggs.

[2] = system: greenhouse red spider mite (Tetranychus urticae); assay: Tetranychus urticae spray test, OP-resistant (TETRUR); format: in vivo; conditions: for efficacy: 100 g/ha, spray, after 6 days
Method: (§2) To produce a suitable active compound formulation, 1 part by weight of active compound is mixed with the stated amounts of solvent and emulsifier, and the concentrate is diluted with emulsifier-containing water to the desired concentration.
Discs of bean leaves (Phaseolus vulgaris) infested by all stages of the greenhouse red spider mite (Tetranychus urticae) are sprayed with an active compound formulation of the desired concentration.
After 6 days, the efficacy in % is determined 100% means that all the spider mites have been killed; 0% means that none of the spider mites have been killed. […]

Lucilia cuprina larvae = assay: Lucilia cuprina test (LUCICU); format: in vivo; conditions: 100 ppm, after 2 days
Method: Lucilia cuprina Test (LUCICU) [table] To produce a suitable active compound formulation, 10 mg of active compound are mixed with 0.5 ml of dimethyl sulfoxide, and the concentrate is diluted with water to the desired concentration. Vessels containing horse meat treated with the active compound formulation of the desired concentration are populated with about 20 Lucilia cuprina larvae. After 2 days, the kill in % is determined 100% means that all the larvae have been killed; 0% means that none of the larvae have been killed.

Ctenocephalides felis = assay: Ctenocephalides felis; oral (CTECFE); format: in vivo; conditions: 100 ppm, oral in cattle blood, after 2 days
Method: Ctenocephalides felis; Oral (CTECFE)
To produce a suitable active compound formulation, 10 mg of active compound are mixed with 0.5 ml of dimethyl sulphoxide. A portion of the concentrate is diluted with citrated cattle blood, and the desired concentration is prepared.
About 20 unfed adult fleas (Ctenocephalides felis) are placed into a chamber which is closed at the top and bottom with gauze. A metal cylinder whose bottom end is closed with parafilm is placed onto the chamber. The cylinder contains the blood/active compound preparation, which can be imbibed by the fleas through the parafilm membrane.
After 2 days, the kill in % is determined 100% means that all fleas have been killed; 0% means that none of the fleas have been killed.

[3] = log P by HPLC on reversed-phase column (C18), EEC directive 79/831 Annex V.A8; format: physicochemical; conditions: for chromatographic logP: reversed-phase HPLC column (C18)
Method: a) The determination of the W by LC-MS in the acidic range is effected at pH 2.7, acetonitrile (contains 0.1% formic acid) and water as eluents; linear gradient from 10% acetonitrile to 95% acetonitrile, instrument: Agilent 1100 LC-System, Agilent MSD System, HTS PAL. The log P values reported in the tables and Preparation Examples above were determined in accordance with EEC directive 79/831 Annex V.A8 by HPLC (High Performance Liquid Chromatography) using a reversed-phase column (C18). Temperature 43° C. The calibration is effected with unbranched alkan-2-ones (having 3 to 16 carbon atoms), for which the log P values are known.

[4] = system: caterpillars of the armyworm (Spodoptera frugiperda); assay: Spodoptera frugiperda spray test (SPODFR); format: in vivo; conditions: for efficacy: 100 g/ha, spray, after 7 days
Method: Spodoptera frugiperda—Spray Test (SPODFR)
as §2
Leaf discs of maize (Zea mays) are sprayed with an active compound formulation of the desired concentration and, after drying, populated with caterpillars of the armyworm (Spodoptera frugiperda).
After 7 days, the efficacy in % is determined. 100% means that all the caterpillars have been killed; 0% means that no caterpillars have been killed.
as §1
Leaf discs of maize (Zea mays) are sprayed with an active compound preparation of the desired concentration and, after drying, populated with caterpillars of the armyworm (Spodoptera frugiperda).
After the stated period of time, the effect in % is determined. 100% means that all the caterpillars have been killed; 0% means that no caterpillars have been killed.

adult Musca domestica = assay: Musca domestica test (MUSCDO); format: in vivo; conditions: 100 ppm, after 2 days
Method: Musca domestica Test (MUSCDO) [table] To produce a suitable active compound formulation, 10 mg of active compound are mixed with 0.5 ml of dimethyl sulfoxide, and the concentrate is diluted with water to the desired concentration. Vessels containing a sponge treated with the active compound formulation of the desired concentration are populated with adult Musca domestica. After 2 days, the kill in % is determined 100% means that all flies have been killed; 0% means that no flies have been killed.

[5] = HPLC, acidic range pH 2.7, 43° C.
[6] = HPLC, acidic range pH 2.7, 43° C., read-out: log p

| SMILES | efficacy [1] [%] | efficacy (laying of fertile eggs) (Boophilus microplus) [%] | efficacy [2] [%] | efficacy (kill) (Lucilia cuprina larvae) [%] | efficacy (kill) (Ctenocephalides felis) [%] | log p [3, 5] | pest or weed control at 100 g/ha ([1]; Phaedon cochleariae, 168 h) [%] | percent efficacy (larval mortality) at 0.8 g/ha ([1]; Phaedon cochleariae, 168 h, PHAECO, 0.8 g of ai/ha, 7 d, read-out: % Efficacy dat) [%] | efficacy [4] [%] | Emax at 4 g/ha ([4]; Spodoptera frugiperda, 168 h, SPODFR, 4 g of ai/ha, 7 d, read-out: % Efficacy dat) [%] | Emax at 4 g/ha ([2]; Tetranychus urticae, 144 h, TETRUR, 4 g of ai/ha, 6 d, read-out: % Efficacy dat) [%] | efficacy (kill) (adult Musca domestica) [%] | chromatographic logP [3, 6] | chromatographic logP ([3]; pH 2.7, final compounds of the synthesis examples, read-out: log P (HPLC-MS)) | Emax at 100 g/ha ([2]; Tetranychus urticae, 144 h, TETRUR, 100 g of ai/ha, 6 d, read-out: % Efficacy dat) [%] |
| --- | --- | --- | --- | --- | --- | --- | --- | --- | --- | --- | --- | --- | --- | --- | --- |
| CCn1c(C(=O)NC(c2cc(Cl)c(F)c(Cl)c2)C(F)(F)F)cc2cc(C(=O)NCc3ccccn3)c(Cl)nc21 (stereo not drawn) [Compound 60] | 100 | 100 | 90 | 100 | 95 | 3.67 |  |  |  |  |  |  |  |  |  |
| Cn1c(C(=O)NC(c2cccc(C(F)(F)F)c2)C(F)(F)F)cc2cc(C(=O)NC3CC3)c(Cl)nc21 (stereo not drawn) [Compound 22] |  | 100 | 100 | 100 | 95 |  | 100 | 100 | 100 | 100 | 90 | 100 | 3.4 |  |  |
| CCn1c(C(=O)NC(c2cccc(C(F)(F)F)c2)C(F)(F)F)cc2cc(C(=O)NC3CC3)c(C)nc21 (stereo not drawn) [Compound 1, N^5-Cyclopropyl-1-ethyl-6-methyl-N^2-{2,2,2-trifluoro-1-[3-(trifluoromethyl)phenyl]ethyl}-1H-pyrrolo[2,3-b]pyridine-2,5-dicarboxamide] |  | 100 | 90 | 100 | 100 |  | 100 |  | 100 |  |  | 100 |  | 3.52 |  |
| CCn1c(C(=O)NC(c2cccc(C(F)(F)F)c2)C(F)(F)F)cc2cc(C(=O)NCC#N)c(Cl)nc21 (stereo not drawn) [Compound 42] |  | 100 | 90 | 100 | 100 |  | 100 |  |  |  |  | 100 | 3.5 |  | 90 |
| CCn1c(C(=O)NC(c2cc(Cl)cc(Cl)c2)C(F)(F)F)cc2cc(C(=O)NC3CC3)c(Cl)nc21 (stereo not drawn) [Compound 28] | 100 | 100 |  | 100 | 95 |  |  |  | 100 |  |  | 100 |  |  |  |
| CCn1c(C(=O)NC(c2cccc(C(F)(F)F)c2)C(F)(F)F)cc2cc(C(=O)NC3CC3)c(Cl)nc21 (stereo not drawn) [Compound 12] | 100 | 100 | 100 | 100 | 100 | 3.70 |  |  | 100 |  |  | 100 |  |  |  |
| CCn1c(C(=O)NC(c2cc(Cl)c(F)c(Cl)c2)C(F)(F)F)cc2cc(C(=O)NC3(C#N)CC3)c(Cl)nc21 (stereo not drawn) [Compound 27] | 100 | 100 | 100 | 100 | 100 | 4.11 |  |  | 100 |  |  | 100 |  |  |  |
| CCn1c(C(=O)NC(c2ccc(F)c(Cl)c2)C(F)(F)F)cc2cc(C(=O)NC3(C(N)=S)CC3)c(Cl)nc21 (stereo not drawn) [Compound 65] | 100 | 100 | 90 | 100 | 100 | 3.51 |  |  | 100 |  |  | 80 |  |  |  |
| CCn1c(C(=O)NC(c2cccc(C(F)(F)F)c2)C(F)(F)F)cc2cc(C(=O)NCC(F)(F)F)c(Cl)nc21 (stereo not drawn) [Compound 41] | 100 | 100 |  | 100 | 100 | 4.08 |  |  | 100 |  |  | 100 |  |  |  |
| CCn1c(C(=O)NC(c2ccc(F)c(Cl)c2)C(F)(F)F)cc2cc(C(=O)NCc3ccccn3)c(Cl)nc21 (stereo not drawn) [Compound 58] | 100 | 100 | 100 | 100 | 100 | 3.17 |  |  |  |  |  |  |  |  |  |
| CCn1c(C(=O)NC(c2ccc(F)c(C(F)(F)F)c2)C(F)(F)F)cc2cc(C(=O)NC3CC3)c(Cl)nc21 (stereo not drawn) [Compound 29] | 100 | 100 | 90 | 100 | 95 |  |  |  | 100 |  |  | 100 |  |  |  |
| CCn1c(C(=O)NC(c2ccc(F)c(Cl)c2)C(F)(F)F)cc2cc(C(=O)NC3CC3)c(Cl)nc21 (stereo not drawn) [Compound 16] | 100 | 100 | 90 | 100 | 100 | 3.61 |  |  |  |  |  | 100 |  |  |  |
| C#CCn1c(C(=O)NC(c2cccc(C(F)(F)F)c2)C(F)(F)F)cc2cc(C(=O)NC3CC3)c(Cl)nc21 (stereo not drawn) [Compound 23] | 100 | 100 | 90 | 100 |  | 3.45 |  |  | 100 |  |  |  |  |  |  |

— patent US9345247B2, “Azaindole carboxylic acid amides and azaindole thiocarboxylic acid amides for use as insecticides and acaricides” (BAYER CROPSCIENCE AG, priority 2012, dated 2016)
